Legend:
[1] = target: T1, PTP-1b (Homo sapiens, UniProt P18031); experiment: Selectivity for protein tyrosine phosphatases: PTP-1b; type: biochemical; settings: at a concentration of 0.2 µM (IC50); read-out: inhibition rate against PTP-1b
T1 construct: purchased Bioneer, Korea
T1 sequence (P18031 1-435): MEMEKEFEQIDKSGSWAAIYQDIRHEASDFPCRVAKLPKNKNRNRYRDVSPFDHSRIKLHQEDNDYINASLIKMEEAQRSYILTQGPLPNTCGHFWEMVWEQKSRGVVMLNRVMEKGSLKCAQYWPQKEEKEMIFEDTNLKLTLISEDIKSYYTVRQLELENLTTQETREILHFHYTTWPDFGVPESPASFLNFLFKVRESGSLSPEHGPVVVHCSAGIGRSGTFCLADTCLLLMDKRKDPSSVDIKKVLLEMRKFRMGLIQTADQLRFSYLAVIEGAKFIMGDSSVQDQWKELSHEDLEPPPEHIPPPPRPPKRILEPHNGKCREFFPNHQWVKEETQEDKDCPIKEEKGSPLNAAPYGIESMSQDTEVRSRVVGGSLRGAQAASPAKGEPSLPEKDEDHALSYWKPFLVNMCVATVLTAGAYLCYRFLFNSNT
Experimental: In order to examine the selectivity of sodium lobarate for protein tyrosine phosphatases, the inhibitory activities of sodium lobarate against PTP-1b, PTPN2, PTPN5, PTPN6, PTPN7 and PTPN13 were examined by spectroscopically measuring the activities of the enzymes.
Specifically, to 0.5 mg/Ml of PTP-1b, PTPN2, PTPN5, PTPN6, PTPN7 or PTPN13 (Bioneer, Korea) in protein tyrosine phosphatase buffer (20 mM Tris-Hcl, pH 8.0, 0.75 mM NaCl, 0.5 mM EDTA, 5 mM β-mercaptoethanol, 50% glycerol), 0, 50, 100 or 200 nM sodium lobarate and the substrate [pTyr1146] insulin receptor (1142-1153, Sigma, USA) were added. Then, each of the mixtures was allowed to react at room temperature for 10-30 minutes, and then malachite green-molybdate dye solution (Sigma, USA) was added thereto and reacted at room temperature for 10 minutes. After completion of the reaction with the substrate, the absorbance at 620 nm was measured.
In order to examine the selectivity of Lobarin for protein tyrosine phosphatases, the inhibitory activities of Lobarin against PTP-1b, PTPN2, PTPN5, PTPN6, PTPN7 and PTPN13 were examined by spectroscopically measuring the activities of the enzymes.
Specifically, to 0.5 mg/Ml of PTP-1b, PTPN2, PTPN5, PTPN6, PTPN7 or PTPN13 (Bioneer, Korea) in protein tyrosine phosphatase buffer (20 mM Tris-Hcl, pH 8.0, 0.75 mM NaCl, 0.5 mM EDTA, 5 mM β-mercaptoethanol, 50% glycerol), 0, 50, 100 or 200 nM Lobarin and the substrate [pTyr1146] insulin receptor (1142-1153, Sigma, USA) were added. […] After completion of the reaction with the substrate, the absorbance at 620 nm was measured.
In order to examine the selectivity of Lobarstin for protein tyrosine phosphatases, the inhibitory activities of Lobarstin against PTP-1b, PTPN2, PTPN5, PTPN6, PTPN7 and PTPN13 were examined by spectroscopically measuring the activities of the enzymes. […] After completion of the reaction with the substrate, the absorbance at 620 nm was measured.

[2] = test system: db/db mice (type 2 diabetic model animals); experiment: Change in blood glucose level after intraperitoneal administration; type: in vivo; settings: 10 mg/kg intraperitoneally daily; for increase in the blood glucose level compared with control group: days 0-21; for average blood glucose level: db/db mice
Experimental: Based on pre-tests, effectiveness tests and toxicity tests for sodium lobarate, dose (expressed as test compound amount (mg)/test animal's weight (kg)) was determined. To 7-week-old male db/db mice (type 2 diabetic model animals, C57/BLKS/J-db/db, the Korea Research Institute of Bioscience and Biotechnology), 200 μl of PBS for a control group and 10 mg/kg of sodium lobarate (PTP-1b activity inhibitory compound) for a test group was administered, respectively, intraperitoneally daily, and the blood glucose levels of the animals were measured twice a week.
Specifically, sodium lobarate (PTP-1b activity inhibitory compound) was administered by intraperitoneal injection to 7-week-old male db/db mice (type 2 diabetic model animals, C57/BLKS/J-db/db, the Korea Research Institute of Bioscience and Biotechnology), and the change in the blood glucose level of the animals was measured.
Based on pre-tests, effectiveness tests and toxicity tests for Lobarin, dose (expressed as test compound amount (mg)/test animal's weight (kg)) was determined. To 7-week-old male db/db mice (type 2 diabetic model animals, C57/BLKS/J-db/db, the Korea Research Institute of Bioscience and Biotechnology), 200 μl of PBS for a control group and 10 mg/kg of Lobarin for a test group was administered, respectively, intraperitoneally daily, and the blood glucose levels of the animals were measured twice a week.
Specifically, Lobarin was administered by intraperitoneal injection to 7-week-old male db/db mice (type 2 diabetic model animals, C57/BLKS/J-db/db, the Korea Research Institute of Bioscience and Biotechnology), and the change in blood glucose level of the animals was measured.
Based on pre-tests, effectiveness tests and toxicity tests for Lobarstin, dose (expressed as test compound amount (mg)/test animal's weight (kg)) was determined. To 7-week-old male db/db mice (type 2 diabetic model animals, C57/BLKS/J-db/db, the Korea Research Institute of Bioscience and Biotechnology), 200 μl of PBS for a control group and 10 mg/kg of Lobarstin for a test group was administered, respectively, intraperitoneally daily, and the blood glucose levels of the animals were measured twice a week.
Specifically, Lobarstin was administered by intraperitoneal injection to 7-week-old male db/db mice (type 2 diabetic model animals, C57/BLKS/J-db/db, the Korea Research Institute of Bioscience and Biotechnology), and the change in blood glucose level of the animals was measured.

Structure (SMILES)	inhibition at 0.2 µM [1]	increase in the blood glucose level compared with control group [2]	average blood glucose level ([2]; day 0)	average blood glucose level ([2]; day 3)	average blood glucose level ([2]; day 7)	average blood glucose level ([2]; day 10)	average blood glucose level ([2]; day 14)	average blood glucose level ([2]; day 17)	average blood glucose level ([2]; day 21)
CCCCCc1c(Oc2cc(OC)cc3c2C(=O)OC3(O)CCCC)c(O)cc(O)c1C(=O)O (stereo not drawn) [Lobarin]	52.2%	less than that in the control group	267 mg/dL	278 mg/dL	298 mg/dL	315 mg/dL	352 mg/dL	379 mg/dL	425 mg/dL
CCCCCc1c2c(cc(O)c1C(=O)[O-])OC(=O)c1c(cc(OC)cc1C(=O)CCCC)O2.[Na+] [sodium lobarate]	50%	less than that in the control group	267 mg/dL	276 mg/dL	378 mg/dL	378 mg/dL	407 mg/dL	415 mg/dL	459 mg/dL
CCC/C=C1/OC(=O)c2c(Oc3c(O)cc(O)c(C(=O)O)c3CCCCC)cc(OC)cc21 [Lobarstin]	48%	less than that in the control group	299 mg/dL		259 mg/dL		267 mg/dL		242 mg/dL

Reference: patent US8846750B2, “Pharmaceutical and food compositions for preventing or treating diabetes or obesity” (Korea Ocean Research and Development Institute, priority 2010, dated 2014)
